Measured values reported in patent publication US10751319B2, “Collection device and methods for use” (CRITITECH, INC., priority 2015, dated 2020).
“And” between values parts separate entries of the source, which are not always exact repeats. Equal values may be shown once.

Key:
Type in all cases: physicochemical
Bulk density = details: room temperature
Description: The mass of the drug was measured to a nearest 0.1 mg, the volume was determined to the nearest 0.1 mL and the density calculated.

[1] = Docetaxel dissolution study, USP Apparatus II (Paddle); details: methanol/water 15/85, 37° C., pH 7, 75 rpm
Description: At 5, 15, 30, 60, 120 and 225 minutes, a 5 mL aliquot was removed, filtered through a 0.22 μm filter, and analyzed on a UV/VIS spectrophotometer at 232 nm. Absorbance values of the samples were compared to those of standard solutions prepared in dissolution media to determine the amount of material dissolved.

[2] = BET analysis (surface area); details: listed as raw paclitaxel
Description: A known mass between 200 and 300 mg of the analyte was added to a 30 mL sample tube. The loaded tube was then mounted to a Porous Materials Inc. SORPTOMETER®, model BET-202A. The automated test was then carried out using the BETWIN® software package and the surface area of each sample was subsequently calculated.

SMILES | Bulk Density (Bulk density) [g/mL] | Dissolution ([1]; 0 minutes) [%] | Dissolution ([1]; 5 minutes) [%] | Dissolution ([1]; 15 minutes) [%] | Dissolution ([1]; 30 minutes) | Dissolution ([1]; 60 minutes) [%] | Dissolution ([1]; 120 minutes) [%] | Dissolution ([1]; 225 minutes) [%] | Surface area [2] [m^2/g]
CC(=O)O[C@@]12CO[C@@H]1C[C@H](O)[C@@]1(C)C(=O)[C@H](O)C3=C(C)[C@@H](OC(=O)[C@H](O)[C@@H](NC(=O)OC(C)(C)C)c4ccccc4)C[C@@](O)([C@@H](OC(=O)c4ccccc4)[C@H]21)C3(C)C [Docetaxel Raw Material, docetaxel] | 0.24 | 0.0 | 3.2 | 6.9 | 11% and 11.2% | 16.4 | 22.4 | 26.8 | 
CC(=O)O[C@H]1C(=O)[C@@]2(C)[C@H]([C@H](OC(=O)c3ccccc3)[C@]3(O)C[C@H](OC(=O)[C@H](O)[C@@H](NC(=O)c4ccccc4)c4ccccc4)C(C)=C1C3(C)C)[C@]1(OC(C)=O)CO[C@@H]1C[C@@H]2O [Paclitaxel Raw Material, paclitaxel] | 0.26 |  |  |  |  |  |  |  | 7.25
